A short description of the data set: in vitro. The settings on record: human, hela cells, % viability.

Regarding `Cc1cccc(OCCOc2ccc(Br)cc2/C=C2\SC(=N)NC2=O)c1` [CBK263958], the viability at 28.5 h, 10 µM worked out at 102%.
Same read-out and setting: the same measure for `O=C(Nc1cc(NC(=O)C2C3C=CC(C3)C2C(=O)O)ccc1Cl)c1cccs1` (stereo not drawn) [CBK263959]: 89.6%.
On the same count and under the same terms, the same measure for `Cc1c(C)n(CC(O)CN2C(=O)c3ccccc3S2(=O)=O)c2ccccc12` (stereo not drawn) [CBK263960]: 88.2%; for `O=C(O)CNC(=O)/C(=C\c1ccccc1F)NC(=O)c1ccccc1` [CBK263961]: 96.5%; for `O=C1CC(NCC2CCCO2)C(=O)N1c1ccc(N2C(=O)CC(NCC3CCCO3)C2=O)cc1` (stereo not drawn) [CBK263962]: 89.9%.
Consider `COc1ccc(C(=O)NC(c2ccco2)c2cc(Cl)c3cccnc3c2O)cc1` (stereo not drawn) [CBK263964], for which the viability at 28.5 h, 10 µM amounted to 91.9%.
On the same count and under the same terms, the same measure for `O=C(O)CNC(=O)/C(=C\c1ccco1)NC(=O)c1ccccc1Cl` [CBK263967]: 84.8%; for `Cc1c(C)n(CC(O)CNCc2ccco2)c2ccccc12` (stereo not drawn) [CBK263970G]: 97%; for `COc1cccc(C(=O)NC(c2ccc([N+](=O)[O-])cc2)c2c(O)ccc3ccccc23)c1` (stereo not drawn) [CBK263971]: 84.2%.
Still for that read-out and setting: the same measure for `O=C(NC(=S)Nc1cccc(-c2nc3cc(Cl)ccc3o2)c1)c1ccccc1Br` [CBK263973]: 95.8%; for `Cc1ccc(S(=O)(=O)N(CC(=O)Nc2cccnc2)c2ccc(C)c(C)c2)cc1` [CBK263974]: 75.4%; for `Cc1ccc(SCCNC(=O)COc2ccc(Cl)cc2Cl)cc1` [CBK263976]: 86.6%.
Still for that read-out and setting: the same measure for `COc1ccc(C)cc1S(=O)(=O)N1CCN(C(c2ccccc2)c2ccccc2)CC1` [CBK263977]: 91.8%; for `O=C1OC(c2ccco2)=N/C1=C/c1ccccc1OC(=O)c1ccco1` [CBK263980]: 103%; for `Cc1ccc(S(=O)(=O)N(CC(=O)NCc2ccco2)c2cc(C)cc(C)c2)cc1` [CBK263982]: 86.2%.
For the compound `Cc1ccc2cccc(OS(=O)(=O)c3ccc(Cl)c(C)c3Cl)c2n1` [CBK263984], the viability at 28.5 h, 10 µM amounted to 53.7%.
Take `Cc1ccc(CSCCNC(=O)/C=C/c2ccccc2)cc1` [CBK263985]: the viability at 28.5 h, 10 µM turned out to be 95.3%.
Same read-out and setting: the same measure for `O=C(NC(=S)Nc1ccc2[nH]c(=O)[nH]c2c1)c1ccc(F)cc1` [CBK263986]: 89.3%; for `O=C(NC(c1cccc([N+](=O)[O-])c1)c1cc(Cl)c2cccnc2c1O)c1cccnc1` (stereo not drawn) [CBK263987]: 92.5%.
On to `CS(=O)(=O)N(Cc1ccc(Cl)cc1)c1ccc(C(=O)Nc2ccccc2C(F)(F)F)cc1` [CBK263988], for which the viability at 28.5 h, 10 µM was 101%.
As to `CS(=O)(=O)N(CC(=O)Nc1ccc2c(c1)OCO2)c1ccc(Oc2ccccc2)cc1` [CBK263989], the viability at 28.5 h, 10 µM is 91.5%.
Still for that read-out and setting: the same measure for `COc1ccc(C(=O)NC(c2ccc(OC)c(OC)c2)c2cc(Cl)c3cccnc3c2O)cc1` (stereo not drawn) [CBK263992]: 96.3%.
On the same count and under the same terms, the same measure for `O=C(COc1ccccc1)NC(/C=C/c1ccccc1)c1cc(Cl)c2cccnc2c1O` (stereo not drawn) [CBK263994]: 104%; for `O=C(Nc1ccc(S(=O)(=O)N2CCCCC2)cc1)c1ccc(CN2CCOCC2)cc1` [CBK264002]: 111%.
`CCOC(=O)c1ccc(NC(=S)NC(=O)c2ccc(C)c(C)c2)cc1` [CBK264004]: the viability at 28.5 h, 10 µM stood at 89.2%.
On the same count and under the same terms, the same measure for `S=C(NCCC(c1ccccc1)c1ccccc1)NC1CCCCC1` [CBK264007]: 96.3%.
In the case of `COc1ccc(C)cc1N(CC(=O)Nc1ccccc1C(=O)O)S(C)(=O)=O` [CBK264009], the viability at 28.5 h, 10 µM is 94.4%.
For `CC(=O)c1cc(C(=O)Nc2ccc(NC(=O)C(=O)O)cc2)oc1C` [CBK264011], the viability at 28.5 h, 10 µM is 95.4%.
The same measure, in the same setting: the same measure for `O=C(/C=C/c1ccc2c(c1)OCO2)NCCSc1ccccn1` [CBK264012]: 97.7%; for `O=C(CC1Sc2ccccc2NC1=O)Nc1ccccc1[N+](=O)[O-]` (stereo not drawn) [CBK264014]: 94.8%; for `Cc1oc2c(c1C(=O)NCC(=O)NCC(=O)O)CCCC2` [CBK264015]: 97.6%.
Turning to `Cc1cc(C)cc(N2C(=O)/C(=C/c3ccc(OC(C)C(=O)O)cc3)C(=O)NC2=S)c1` (stereo not drawn) [CBK264016], the viability at 28.5 h, 10 µM (bulk resorufin, single well) stood at 93.9%.
Consider `Cc1ccc(Cl)cc1N(CC(=O)Nc1ccccc1C(=O)O)S(C)(=O)=O` [CBK264020], for which the viability at 28.5 h, 10 µM was determined as 89.5%.
Still for that read-out and setting: the same measure for `COc1ccc(Br)cc1S(=O)(=O)NCc1cccnc1` [CBK264023]: 90.7%.
Still for that read-out and setting: the same measure for `CCOc1ccc(OCC)c(S(=O)(=O)n2nc(C)cc2C)c1` [CBK264024]: 94.6%.
For the compound `C=CCc1cc(/C=C2\C(=O)NC(=O)N(c3ccc4c(c3)OCO4)C2=O)cc(OC)c1OCC(=O)O` [CBK264025], the viability at 28.5 h, 10 µM (bulk resorufin, single well) is 98.5%.
As to `COc1ccc(CSCC(N)C(=O)O)cc1Br` (stereo not drawn) [CBK264026], the viability at 28.5 h, 10 µM came to 94%.
Still for that read-out and setting: the same measure for `CSCCC(NC(=O)c1c(C)oc2c1CCCC2)C(=O)O` (stereo not drawn) [CBK264029]: 82%.
On the same count and under the same terms, the same measure for `Cc1ccc(N(CC(=O)Nc2cc(Cl)ccc2C)S(C)(=O)=O)cc1` [CBK264030]: 92.9%; for `COc1ccc(N(CC(=O)Nc2cccnc2)S(=O)(=O)c2ccc(C)cc2)cc1` [CBK264033]: 99.6%.
The same measure, in the same setting: the same measure for `Cc1ccc(S(=O)(=O)N(CC(=O)Nc2ccccc2C(=O)O)c2ccccc2)cc1` [CBK264034]: 94.6%; for `COc1ccc(C(=O)NC(c2ccccc2Cl)c2cc(Cl)c3cccnc3c2O)cc1` (stereo not drawn) [CBK264036]: 88%.
As to `COc1ccc(C(=O)NC(=S)Nc2ccc(O)c(-c3nc4cc(C)c(C)cc4o3)c2)cc1[N+](=O)[O-]` [CBK264039], the viability at 28.5 h, 10 µM was found to be 111%.
For `Cc1ccc(N2C(=O)/C(=C/c3ccc(OCC(=O)O)c(Cl)c3)C(=O)NC2=S)c(C)c1` [CBK264043], where the note is “bulk resorufin, single well”, the viability at 28.5 h, 10 µM was 109%.
For `CC(=O)N/C(=C/c1ccccc1)C(=O)NCCC(=O)O` [CBK264046], the viability at 28.5 h, 10 µM came out at 87.2%.
On the same count and under the same terms, the same measure for `COc1cccc(C(=O)NC(c2ccc(OC)c(OC)c2)c2cc(Cl)c3cccnc3c2O)c1` (stereo not drawn) [CBK264048]: 95.4%.
In the case of `COc1ccc(Br)cc1S(=O)(=O)NCCCN1CCOCC1` [CBK264050], the viability at 28.5 h, 10 µM turned out to be 103%.
Regarding `CC(C)(C)c1cc(C(=O)O)c(CN2CCOCC2)o1` [CBK264052], the viability at 28.5 h, 10 µM was found to be 88.7%.
Take `Cc1ccccc1C(=O)Nc1cccc(-c2nnc(SCC(=O)c3ccc(Cl)cc3)n2C)c1` [CBK264053]: the viability at 28.5 h, 10 µM was 89.3%.
Same read-out and setting: the same measure for `OC(Cn1nnc2ccccc21)Cn1c(-c2ccccc2)c(-c2ccccc2)c2ccc3ccccc3c21` (stereo not drawn) [CBK264054G]: 92.9%; for `COc1cc2c(cc1NC(=O)C(C)Oc1ccccc1)oc1ccccc12` (stereo not drawn) [CBK264061]: 91.3%.
Same read-out and setting: the same measure for `CC(Oc1ccccc1)C(=O)Nc1cccc(C#N)c1` (stereo not drawn) [CBK264062]: 91%; for `O=C(CSc1nc2sc3c(c2c(=O)[nH]1)CCCC3)NCCN1CCOCC1` [CBK264064]: 111%.
On the same count and under the same terms, the same measure for `Cc1ccc(C(=O)C(C)OC(=O)c2cc(-c3ccccc3)nc3ccccc23)cc1` (stereo not drawn) [CBK264067]: 99.8%.

The values above are taken from publication PMC12040169 (PLOS Biology, 2025).
